Laboratory results: ChEMBL document CHEMBL1201862, “PubChem BioAssay data set” (2004)
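Cultured in 96-well plates, cells were exposed to test compound for 48 hours across five concentrations. GI50 is the concentration that inhibits growth by half.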 Active and inactive are the calls of the source. Cut-off read from the data, not from the text of the source: active = GI50 up to about 1.1 µM and inactive = higher.

Experiments:
Assay in all cases: NCI anticancer screen, dose series, 48 h
A498 = system: A498
ACHN = system: ACHN
CAKI-1 = system: CAKI-1
COLO 205 = system: COLO 205
EKVX = system: EKVX
HOP-62 = system: HOP-62
Hs-578T = system: Hs-578T
IGROV-1 = system: IGROV-1
M14 = system: M14
MCF7 = system: MCF7
NCI/ADR-RES = system: NCI/ADR-RES
OVCAR-3 = system: OVCAR-3
OVCAR-8 = system: OVCAR-8
SF-539 = system: SF-539
SK-MEL-2 = system: SK-MEL-2
SK-OV-3 = system: SK-OV-3
SNB-19 = system: SNB-19
TK-10 = system: TK-10
UO-31 = system: UO-31
RXF 393 = system: RXF 393

**Q.** How did the GI50 (A498) turn out when `COc1ccc2cc1Oc1ccc(cc1)CC1c3c(cc(OC)c4c3Oc3cc5c(cc3O4)CCNC5C2)CCN1C` (configuration not stated) was run?
**A.** The GI50 was 2.1 µM (inactive).

**Q.** What about the GI50 (ACHN) of the same molecule?
**A.** The GI50 was 1.88 µM (inactive).

**Q.** What about the GI50 (CAKI-1) of the same molecule?
**A.** Its GI50 is 2.87 µM (inactive).

**Q.** And the GI50 (COLO 205)?
**A.** Its GI50 is 1.72 µM (inactive).

**Q.** What about the GI50 (EKVX) of the same molecule?
**A.** Its GI50 is 1.94 µM (inactive).

**Q.** What about the GI50 (HOP-62) of the same molecule?
**A.** The GI50 was 2.2 µM (inactive).

**Q.** What about the GI50 (Hs-578T) of the same molecule?
**A.** The GI50 was 2.19 µM (inactive).

**Q.** What about the GI50 (IGROV-1) of the same molecule?
**A.** The GI50 was 1.87 µM (inactive).

**Q.** What about the GI50 (M14) of the same molecule?
**A.** The GI50 was 2.58 µM (inactive).

**Q.** And the GI50 (MCF7)?
**A.** The GI50 was 1.85 µM (inactive).

**Q.** What about the GI50 (NCI/ADR-RES) of the same molecule?
**A.** Its GI50 is 1.92 µM (inactive).

**Q.** What about the GI50 (OVCAR-3) of the same molecule?
**A.** The GI50 was 2.69 µM (inactive).

**Q.** What about the GI50 (OVCAR-8) of the same molecule?
**A.** Its GI50 is 1.77 µM (inactive).

**Q.** What about the GI50 (SF-539) of the same molecule?
**A.** The GI50 was 1.7 µM (inactive).

**Q.** What about the GI50 (SK-MEL-2) of the same molecule?
**A.** Its GI50 is 1.84 µM (inactive).

**Q.** And the GI50 (SK-OV-3)?
**A.** The GI50 was 4.67 µM (inactive).

**Q.** And the GI50 (SNB-19)?
**A.** Its GI50 is 2 µM (inactive).

**Q.** And the GI50 (TK-10)?
**A.** The GI50 was 1.86 µM (inactive).

**Q.** And the GI50 (UO-31)?
**A.** The GI50 was 15.6 µM (inactive).

**Q.** For `O=C(NC(Cc1ccc(Br)cc1)C(=O)O)c1ccc(I)cc1` (configuration not stated), which GI50 (A498) is on record?
**A.** The GI50 was > 100 µM (inactive).

**Q.** What about the GI50 (CAKI-1) of the same molecule?
**A.** The GI50 was > 100 µM (inactive).

**Q.** And the GI50 (COLO 205)?
**A.** Its GI50 is > 100 µM (inactive).

**Q.** What about the GI50 (EKVX) of the same molecule?
**A.** Its GI50 is > 52 µM (inactive).

**Q.** What about the GI50 (HOP-62) of the same molecule?
**A.** The GI50 was > 100 µM (inactive).

**Q.** What about the GI50 (IGROV-1) of the same molecule?
**A.** The GI50 was > 100 µM (inactive).

**Q.** What about the GI50 (MCF7) of the same molecule?
**A.** The GI50 was > 100 µM (inactive).

**Q.** What about the GI50 (NCI/ADR-RES) of the same molecule?
**A.** The GI50 was > 100 µM (inactive).

**Q.** And the GI50 (OVCAR-3)?
**A.** The GI50 was > 69.7 µM (inactive).

**Q.** What about the GI50 (OVCAR-8) of the same molecule?
**A.** The GI50 was > 100 µM (inactive).

**Q.** What about the GI50 (RXF 393) of the same molecule?
**A.** Its GI50 is > 100 µM (inactive).

**Q.** What about the GI50 (SF-539) of the same molecule?
**A.** The GI50 was > 100 µM (inactive).

**Q.** What about the GI50 (SK-MEL-2) of the same molecule?
**A.** Its GI50 is > 100 µM (inactive).

**Q.** And the GI50 (SK-OV-3)?
**A.** The GI50 was > 100 µM (inactive).

**Q.** What about the GI50 (SNB-19) of the same molecule?
**A.** Its GI50 is > 81.3 µM (inactive).

**Q.** And the GI50 (UO-31)?
**A.** Its GI50 is > 100 µM (inactive).

**Q.** With `COc1cc(C2S/C(=C/c3ccccc3)C(=O)N2c2ccc(NC(C)=O)cc2)cc(OC)c1OC` (configuration not stated) as the molecule, how does the GI50 (A498) read?
**A.** Its GI50 is 21.4 µM (inactive).

**Q.** What about the GI50 (ACHN) of the same molecule?
**A.** The GI50 was 22.7 µM (inactive).

**Q.** And the GI50 (CAKI-1)?
**A.** Its GI50 is 18.8 µM (inactive).

**Q.** And the GI50 (COLO 205)?
**A.** The GI50 was 15.2 µM (inactive).

**Q.** What about the GI50 (EKVX) of the same molecule?
**A.** Its GI50 is 9.71 µM (inactive).

**Q.** And the GI50 (HOP-62)?
**A.** Its GI50 is 30.4 µM (inactive).

**Q.** And the GI50 (Hs-578T)?
**A.** The GI50 was 21.2 µM (inactive).

**Q.** What about the GI50 (M14) of the same molecule?
**A.** The GI50 was 19.5 µM (inactive).

**Q.** What about the GI50 (MCF7) of the same molecule?
**A.** Its GI50 is 23.9 µM (inactive).

**Q.** And the GI50 (NCI/ADR-RES)?
**A.** The GI50 was 23.4 µM (inactive).

**Q.** What about the GI50 (OVCAR-8) of the same molecule?
**A.** Its GI50 is 18.5 µM (inactive).

**Q.** And the GI50 (RXF 393)?
**A.** The GI50 was 17.5 µM (inactive).

**Q.** What about the GI50 (SK-MEL-2) of the same molecule?
**A.** Its GI50 is 0.71 µM (active).

**Q.** What about the GI50 (SK-OV-3) of the same molecule?
**A.** Its GI50 is 35.2 µM (inactive).

**Q.** What about the GI50 (SNB-19) of the same molecule?
**A.** Its GI50 is 38.1 µM (inactive).

**Q.** And the GI50 (TK-10)?
**A.** Its GI50 is 37.2 µM (inactive).

**Q.** And the GI50 (UO-31)?
**A.** The GI50 was 24 µM (inactive).
